The values that follow are results of earlier work, collected in patent US20140017308A1, “COMPOSITIONS COMPRISING A FATTY ACID OIL MIXTURE, A FREE FATTY ACID, AND A STATIN” (Pronova Biopharma Norge AS, priority 2010, published 2014).

Usually half-life stands for how long it takes for the measured level to halve.

For the data set the following is noted: in vivo.
Take `CCC(C)(C)C(=O)O[C@H]1C[C@@H](C)C=C2C=C[C@H](C)[C@H](CC[C@@H]3C[C@@H](O)CC(=O)O3)[C@H]21` [simvastatin]: the half-life is 2 to 3 h.
For `CC(C)c1nc(N(C)S(C)(=O)=O)nc(-c2ccc(F)cc2)c1/C=C/[C@@H](O)C[C@@H](O)CC(=O)O` [rosuvastatin], the half-life entry is listed as “about 20 hours”.
For the compound `CC[C@H](C)C(=O)O[C@H]1C[C@H](O)C=C2C=C[C@H](C)[C@H](CC[C@@H](O)C[C@@H](O)CC(=O)O)[C@H]21` [pravastatin], the half-life result was “about 0.8 hours”.
